Source: patent US20250195474A1, “Piezo Inhibition for Wound Healing” (priority 2022, published 2025)
No end group written: not given here.

Assays:
[1] = tested on: wounds; test: CODEX spatial protein analysis of POD 14 wounds; format: in vivo, mouse; details: POD 14, vs PBS
From the text: (§1) To spatially phenotype the pig specimens, we used Co-Detection by Indexing (CODEX), a novel assay in which markers are labeled with oligonucleotide-conjugated antibodies and iteratively imaged between cyclic additions and washouts of dye-labeled oligonucleotides. A custom CODEX panel was designed to assess wound cells within the tissue see Table 1). In brief, primary antibodies were individually barcoded and validated using the commercial supplier's protocols. OCT for mouse or paraffin blocks for human xenograft (n=3 per group) were sectioned at 8 μm thickness onto coverslips for CODEX antibody staining. Antigens were retrieved by standard citrate-EDTA processing prior to addition of CODEX antibodies. Using a CODEX-integrated Keyence BZ-X instrument (Akoya Biosciences) image acquisition was then performed. Using software from Akoya Biosciences the raw images were process, with cell segmentation, and rendering.
(§2) The CODEX was visualized using Akoya Biosciences Multiplex Analysis Viewer (MAV) in ImageJ. The resulting .fcs files were then concatenated in FlowJo and imported into the Monocle3 and STvEA R packages for further analysis. After debris removal, the processed UMAP manifold was analyzed through Monocle3 with a post-manifold threshold of >10,000 cells per cluster. Analysis of the protein staining patterns was then used to assign cell types. The cell interactions were then inferred using STvEA for cell types at >2.5% of total abundance at k=20 nearest neighbors to quantify cell spatial interactions, and differential interaction maps were generated using graph scores.

[2] = tested on: existing scars; test: CODEX spatial protein analysis of treated existing scars; format: in vivo, mouse
From the text: as §1, §2
To phenotype the spatial environment in the context of rescuing existing scars, CODEX was further employed to spatially define protein expression, cell populations, and associated cell-cell interactions (FIG. 10A; markers shown in Table 1 middle column, 39A). […]

[3] = tested on: human foreskin xenograft wounds; test: CODEX analysis of human xenograft wounds at POD 14; format: in vivo
From the text: as §1, §2
While scRNA-seq of human xenografts investigates human fibroblast subpopulations at a transcriptomic level, we further utilized CODEX to analyze spatially defined protein expression and cellular organization (FIG. 13A; markers shown in Table 1 right column). Specifically, we compared the spatial microenvironment of PBS, P1i, and unwounded skin at POD 14. […]

[4] = molecular target: TRPC1 (Homo sapiens, UniProt P48995); details: cited from earlier work
Chain of TRPC1 (P48995 whole entry, species assumed): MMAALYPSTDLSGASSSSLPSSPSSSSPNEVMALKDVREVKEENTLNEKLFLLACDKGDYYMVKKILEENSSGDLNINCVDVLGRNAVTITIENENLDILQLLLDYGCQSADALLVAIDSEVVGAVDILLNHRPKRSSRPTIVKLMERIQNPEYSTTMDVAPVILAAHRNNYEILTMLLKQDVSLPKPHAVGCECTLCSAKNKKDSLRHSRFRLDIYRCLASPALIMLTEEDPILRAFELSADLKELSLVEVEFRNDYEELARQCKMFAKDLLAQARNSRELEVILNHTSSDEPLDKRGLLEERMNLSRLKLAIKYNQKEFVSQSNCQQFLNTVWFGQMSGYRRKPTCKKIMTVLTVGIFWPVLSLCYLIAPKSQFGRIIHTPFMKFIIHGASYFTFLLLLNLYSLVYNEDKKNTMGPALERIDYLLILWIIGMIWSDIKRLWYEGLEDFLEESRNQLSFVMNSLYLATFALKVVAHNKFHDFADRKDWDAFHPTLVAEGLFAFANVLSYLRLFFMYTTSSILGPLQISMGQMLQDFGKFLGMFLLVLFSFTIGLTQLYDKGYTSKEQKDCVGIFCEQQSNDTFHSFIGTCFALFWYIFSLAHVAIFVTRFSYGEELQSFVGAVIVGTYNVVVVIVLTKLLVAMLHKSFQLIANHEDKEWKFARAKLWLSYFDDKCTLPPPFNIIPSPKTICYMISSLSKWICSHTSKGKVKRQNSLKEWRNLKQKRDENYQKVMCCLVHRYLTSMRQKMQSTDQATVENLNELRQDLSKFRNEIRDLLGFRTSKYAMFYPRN

[5] = molecular target: T1, TRPC6 (Homo sapiens, UniProt Q9Y210); details: cited from earlier work
T1 sequence (Q9Y210 1-931): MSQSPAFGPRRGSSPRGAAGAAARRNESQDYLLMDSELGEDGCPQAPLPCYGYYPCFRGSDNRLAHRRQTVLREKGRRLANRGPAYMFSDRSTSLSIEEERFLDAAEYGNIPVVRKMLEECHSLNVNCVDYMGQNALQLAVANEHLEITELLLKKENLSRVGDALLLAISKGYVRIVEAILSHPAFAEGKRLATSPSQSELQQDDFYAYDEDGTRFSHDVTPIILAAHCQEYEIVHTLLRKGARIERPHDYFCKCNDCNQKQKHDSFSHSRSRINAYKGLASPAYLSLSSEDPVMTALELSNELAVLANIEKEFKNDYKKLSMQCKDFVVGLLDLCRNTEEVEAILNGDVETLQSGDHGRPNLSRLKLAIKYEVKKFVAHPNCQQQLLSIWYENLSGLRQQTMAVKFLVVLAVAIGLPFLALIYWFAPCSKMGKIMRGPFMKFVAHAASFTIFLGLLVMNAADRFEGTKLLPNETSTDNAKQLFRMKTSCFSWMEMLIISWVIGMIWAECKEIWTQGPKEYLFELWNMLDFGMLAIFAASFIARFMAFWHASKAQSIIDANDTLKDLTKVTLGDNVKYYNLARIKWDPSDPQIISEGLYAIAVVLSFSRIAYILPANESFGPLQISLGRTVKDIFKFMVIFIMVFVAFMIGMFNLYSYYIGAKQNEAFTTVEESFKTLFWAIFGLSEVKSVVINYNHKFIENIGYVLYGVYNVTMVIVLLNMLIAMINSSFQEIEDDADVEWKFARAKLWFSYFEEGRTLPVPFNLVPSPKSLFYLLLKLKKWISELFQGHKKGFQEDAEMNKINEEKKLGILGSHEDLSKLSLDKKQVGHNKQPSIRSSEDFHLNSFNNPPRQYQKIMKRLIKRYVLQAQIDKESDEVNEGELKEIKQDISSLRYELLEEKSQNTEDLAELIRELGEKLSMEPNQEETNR

Substance: GsMTx4 (GCLEFWWKCNPNDDKCCRPKLKCSKLFKLCNFSF; ends and bridges not checked; cysteine pairing not given here; UniProt Q7YT39 47-80, looked up) [P1i]
- Lef1 (new hair follicle formation) [1]: highly expressed
- adipocyte-fibroblast spatial interactions (CODEX) [1]: reduced adipocyte-fibroblast interactions
- individual adipocyte-fibroblast subpopulation interactions (CODEX) [1]: enriching the interactions of adipocyte cluster 2 with fibroblast clusters 2 and 4
- adipocyte cluster 2 interactions with epithelial cells ([2]; POD 60, 105 and 150): interacted more strongly with epithelial cells
- expression of mechanical markers ([2]; POD 60, 105 and 150): PBS treated wounds showed higher expression of mechanical markers
- interactions mediated by adipocyte clusters ([2]; vs PBS treated scars): enriched interactions mediated by adipocyte cluster 2
- interactions between fibroblasts and adipocytes ([3]; POD 14): PBS-treated wounds showed broadly enriched interactions between fibroblasts and adipocytes compared to P1i-treated wounds
- interactions of adipocytes 4 ([3]; POD 14): strong crosstalk between adipocytes 4 and epithelial cells
- relative proportions of CODEX defined adipocyte clusters ([3]; POD 14, vs PBS, p<0.05): fewer of the adipocyte 1 subtype and more of the adipocyte 4 subtype
- block of TRPC1 [4]: blocks
- block of TRPC6 [5]: blocks
